Test results: ChEMBL document CHEMBL4800726, “Data for DCP probe MSC-4381” (2021); call rule not given here

Key:
[1] = target: T1, GABA-A receptor; anion channel (Rattus norvegicus) (UniProt O09028+P15431+P18506+P18508+P19969+P20236+P23574+P23576+P28471+P28473+P30191+P62813+P63079+P63138+Q91ZM7+Q9ES14); test: Cl- channel (GABA-gated) Eurofins-Cerep binding assay; assay type: protein-complex assay; parameters: ligand concentration 3 nM; settings: filed as antagonist, Compound concentration 10.0 uM
[2] = target: Nociceptin receptor (Homo sapiens) (UniProt P41146); test: NOP (ORL1) (h) Eurofins-Cerep binding assay; parameters: ligand concentration 0.06 nM; settings: filed as agonist, Compound concentration 10.0 uM
Sequence of Nociceptin receptor (Homo sapiens) (P41146 whole entry): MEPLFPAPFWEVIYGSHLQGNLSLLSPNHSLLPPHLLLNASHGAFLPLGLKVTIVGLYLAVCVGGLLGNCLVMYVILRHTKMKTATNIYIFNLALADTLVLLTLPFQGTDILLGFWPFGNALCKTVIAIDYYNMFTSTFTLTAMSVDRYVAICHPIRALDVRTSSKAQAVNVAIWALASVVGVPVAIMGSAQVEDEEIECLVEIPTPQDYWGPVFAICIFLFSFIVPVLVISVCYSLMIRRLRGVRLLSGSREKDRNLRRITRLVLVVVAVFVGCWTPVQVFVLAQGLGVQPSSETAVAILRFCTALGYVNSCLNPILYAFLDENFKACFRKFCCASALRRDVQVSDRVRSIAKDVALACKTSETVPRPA

[3] = target: Beta-2 adrenergic receptor (Homo sapiens) (UniProt P07550); settings: Compound concentration 10.0 uM
Sequence of Beta-2 adrenergic receptor (Homo sapiens) (P07550 whole entry, looked up): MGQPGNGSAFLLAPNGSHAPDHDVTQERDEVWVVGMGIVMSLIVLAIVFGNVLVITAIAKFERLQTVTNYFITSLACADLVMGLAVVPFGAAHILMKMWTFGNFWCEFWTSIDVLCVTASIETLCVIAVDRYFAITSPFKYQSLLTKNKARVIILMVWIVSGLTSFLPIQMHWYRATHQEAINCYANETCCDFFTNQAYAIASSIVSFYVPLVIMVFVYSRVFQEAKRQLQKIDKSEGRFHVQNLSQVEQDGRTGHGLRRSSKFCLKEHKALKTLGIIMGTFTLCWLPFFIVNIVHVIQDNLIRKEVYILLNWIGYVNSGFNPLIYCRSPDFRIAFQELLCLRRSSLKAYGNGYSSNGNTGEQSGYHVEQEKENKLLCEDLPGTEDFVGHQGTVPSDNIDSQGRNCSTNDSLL

[4] = target: 5-hydroxytryptamine receptor 1E (Homo sapiens, UniProt P28566); test: GPCRScan assay: inhibition of 5-HT1E; parameters: radioligand conc. used [nm] 2.1 – 5.0, parental cells stable HEK
Sequence of 5-hydroxytryptamine receptor 1E (P28566 whole entry): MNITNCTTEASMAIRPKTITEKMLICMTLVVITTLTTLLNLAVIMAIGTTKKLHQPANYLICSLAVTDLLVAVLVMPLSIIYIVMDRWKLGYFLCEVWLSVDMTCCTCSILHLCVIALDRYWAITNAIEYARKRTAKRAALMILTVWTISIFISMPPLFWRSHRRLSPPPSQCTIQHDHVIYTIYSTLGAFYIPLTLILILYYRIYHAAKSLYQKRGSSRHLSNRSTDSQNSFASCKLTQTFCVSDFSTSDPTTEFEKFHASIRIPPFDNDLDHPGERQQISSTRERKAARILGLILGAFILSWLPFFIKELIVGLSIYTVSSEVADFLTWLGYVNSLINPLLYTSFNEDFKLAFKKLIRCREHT

[5] = target: T2, Muscarinic acetylcholine receptor M5 (Homo sapiens) (UniProt P08912); settings: Compound concentration 10.0 uM
T2 sequence (whole entry): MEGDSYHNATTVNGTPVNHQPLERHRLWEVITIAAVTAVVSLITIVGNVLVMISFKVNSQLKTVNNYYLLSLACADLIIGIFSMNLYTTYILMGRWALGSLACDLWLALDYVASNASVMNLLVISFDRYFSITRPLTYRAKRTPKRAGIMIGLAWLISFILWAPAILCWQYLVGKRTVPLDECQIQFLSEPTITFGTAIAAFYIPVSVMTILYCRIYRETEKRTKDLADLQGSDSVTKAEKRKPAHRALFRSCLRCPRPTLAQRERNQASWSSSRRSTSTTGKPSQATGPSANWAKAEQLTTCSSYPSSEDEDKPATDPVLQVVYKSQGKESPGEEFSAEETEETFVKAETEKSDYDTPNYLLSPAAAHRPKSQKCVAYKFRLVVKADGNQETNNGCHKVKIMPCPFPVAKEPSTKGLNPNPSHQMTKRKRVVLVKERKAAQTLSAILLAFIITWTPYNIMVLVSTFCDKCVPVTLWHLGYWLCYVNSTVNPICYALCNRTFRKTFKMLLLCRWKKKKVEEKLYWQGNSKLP

[6] = target: Sigma non-opioid intracellular receptor 1 (Homo sapiens) (UniProt Q99720); settings: Compound concentration 10.0 uM
Sequence of Sigma non-opioid intracellular receptor 1 (Homo sapiens) (Q99720 whole entry): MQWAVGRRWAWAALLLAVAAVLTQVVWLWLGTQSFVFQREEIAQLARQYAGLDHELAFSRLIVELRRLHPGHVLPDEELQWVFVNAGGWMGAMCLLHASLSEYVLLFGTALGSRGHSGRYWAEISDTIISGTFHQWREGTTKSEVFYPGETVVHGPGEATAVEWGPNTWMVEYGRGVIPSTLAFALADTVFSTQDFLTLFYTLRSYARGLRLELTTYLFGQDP

[7] = target: Alpha-2B adrenergic receptor (Homo sapiens) (UniProt P18089); settings: Compound concentration 10.0 uM
Sequence of Alpha-2B adrenergic receptor (Homo sapiens) (P18089 whole entry): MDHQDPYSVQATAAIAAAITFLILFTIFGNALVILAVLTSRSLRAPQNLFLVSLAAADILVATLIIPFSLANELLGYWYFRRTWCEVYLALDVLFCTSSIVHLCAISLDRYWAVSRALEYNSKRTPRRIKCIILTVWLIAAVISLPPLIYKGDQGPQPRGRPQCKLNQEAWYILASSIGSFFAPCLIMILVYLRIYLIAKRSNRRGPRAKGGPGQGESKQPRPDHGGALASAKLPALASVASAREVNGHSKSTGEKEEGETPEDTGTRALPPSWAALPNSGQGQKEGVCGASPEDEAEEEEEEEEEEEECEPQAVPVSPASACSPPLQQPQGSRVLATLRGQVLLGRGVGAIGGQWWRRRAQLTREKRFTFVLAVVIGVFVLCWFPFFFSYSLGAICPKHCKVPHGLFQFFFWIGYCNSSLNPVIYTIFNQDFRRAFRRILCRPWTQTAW

[8] = target: Muscarinic acetylcholine receptor M3 (Homo sapiens) (UniProt P20309); test: M3 (h) Eurofins-Cerep binding assay; parameters: ligand concentration 0.2 nM; settings: filed as antagonist, Compound concentration 10.0 uM
[9] = target: T3, 5-hydroxytryptamine receptor 1A (Homo sapiens) (UniProt P08908); settings: Compound concentration 10.0 uM
T3 sequence (whole entry): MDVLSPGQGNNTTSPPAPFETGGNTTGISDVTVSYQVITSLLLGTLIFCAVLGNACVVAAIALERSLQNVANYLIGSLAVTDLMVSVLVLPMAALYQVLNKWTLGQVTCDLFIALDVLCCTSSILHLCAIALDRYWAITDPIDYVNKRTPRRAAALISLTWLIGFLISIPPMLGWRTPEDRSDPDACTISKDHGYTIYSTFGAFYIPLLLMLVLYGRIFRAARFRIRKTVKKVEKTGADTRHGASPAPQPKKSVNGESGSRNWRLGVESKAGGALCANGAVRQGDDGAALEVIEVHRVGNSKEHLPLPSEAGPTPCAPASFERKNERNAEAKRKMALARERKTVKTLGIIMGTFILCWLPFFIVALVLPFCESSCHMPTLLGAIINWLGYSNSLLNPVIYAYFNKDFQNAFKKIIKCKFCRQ

[10] = target: T4, Muscarinic acetylcholine receptor M2 (Homo sapiens) (UniProt P08172); test: M2 (h) Eurofins-Cerep binding assay; parameters: ligand concentration 2 nM; settings: filed as antagonist, Compound concentration 10.0 uM
T4 sequence (whole entry): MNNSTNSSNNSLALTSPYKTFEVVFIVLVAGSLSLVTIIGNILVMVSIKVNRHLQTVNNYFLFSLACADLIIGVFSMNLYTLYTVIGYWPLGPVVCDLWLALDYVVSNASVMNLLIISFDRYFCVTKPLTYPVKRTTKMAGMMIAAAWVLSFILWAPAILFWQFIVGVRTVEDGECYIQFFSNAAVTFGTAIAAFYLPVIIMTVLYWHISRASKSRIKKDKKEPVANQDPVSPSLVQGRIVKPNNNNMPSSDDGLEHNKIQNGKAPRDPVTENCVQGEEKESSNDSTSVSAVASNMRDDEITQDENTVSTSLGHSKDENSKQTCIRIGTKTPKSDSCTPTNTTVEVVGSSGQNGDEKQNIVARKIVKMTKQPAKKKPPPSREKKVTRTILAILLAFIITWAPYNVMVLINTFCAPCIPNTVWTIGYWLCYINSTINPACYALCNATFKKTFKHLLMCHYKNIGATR

[11] = target: Adrenergic receptor alpha-1 (Rattus norvegicus) (UniProt P15823+P23944+P43140); test: Alpha1 (non-selective) Eurofins-Cerep binding assay; assay type: protein assay; parameters: ligand concentration 0.25 nM; settings: filed as antagonist, Compound concentration 10.0 uM
[12] = target: Monocarboxylate transporter 2/3 (Homo sapiens, UniProt O60669+O95907); test: Lactate efflux inhibition assay (RT4); assay type: protein assay
[13] = target: Melanocortin receptor 4 (Homo sapiens) (UniProt P32245); test: MC4 (h) Eurofins-Cerep binding assay; parameters: ligand concentration 0.05 nM; settings: filed as agonist, Compound concentration 10.0 uM
Sequence of Melanocortin receptor 4 (Homo sapiens) (P32245 whole entry): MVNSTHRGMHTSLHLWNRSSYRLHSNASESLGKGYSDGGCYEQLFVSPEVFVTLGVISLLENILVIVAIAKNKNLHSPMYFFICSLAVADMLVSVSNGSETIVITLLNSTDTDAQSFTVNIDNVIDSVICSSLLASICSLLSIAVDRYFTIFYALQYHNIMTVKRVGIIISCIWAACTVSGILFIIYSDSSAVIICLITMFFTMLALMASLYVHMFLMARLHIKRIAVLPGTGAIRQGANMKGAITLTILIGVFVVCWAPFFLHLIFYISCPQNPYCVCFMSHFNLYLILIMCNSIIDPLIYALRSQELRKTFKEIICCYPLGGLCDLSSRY

[14] = target: Muscarinic acetylcholine receptor M4 (Homo sapiens) (UniProt P08173); settings: Compound concentration 10.0 uM
Sequence of Muscarinic acetylcholine receptor M4 (Homo sapiens) (P08173 whole entry): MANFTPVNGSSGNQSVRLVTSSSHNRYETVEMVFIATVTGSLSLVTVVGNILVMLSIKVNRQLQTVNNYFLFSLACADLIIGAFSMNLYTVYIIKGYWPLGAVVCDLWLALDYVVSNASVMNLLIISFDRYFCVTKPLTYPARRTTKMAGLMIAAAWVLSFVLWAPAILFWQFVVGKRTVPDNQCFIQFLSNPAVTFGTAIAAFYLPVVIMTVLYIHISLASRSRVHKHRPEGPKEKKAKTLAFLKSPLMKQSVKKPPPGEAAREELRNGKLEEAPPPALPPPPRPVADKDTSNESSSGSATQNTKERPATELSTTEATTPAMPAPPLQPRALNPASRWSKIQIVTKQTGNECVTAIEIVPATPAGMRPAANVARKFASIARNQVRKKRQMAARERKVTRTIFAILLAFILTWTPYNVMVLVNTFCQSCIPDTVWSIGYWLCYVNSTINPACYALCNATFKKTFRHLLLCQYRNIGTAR

[15] = target: Delta-type opioid receptor (Homo sapiens, UniProt P41143); settings: Compound concentration 10.0 uM
Sequence of Delta-type opioid receptor (P41143 whole entry): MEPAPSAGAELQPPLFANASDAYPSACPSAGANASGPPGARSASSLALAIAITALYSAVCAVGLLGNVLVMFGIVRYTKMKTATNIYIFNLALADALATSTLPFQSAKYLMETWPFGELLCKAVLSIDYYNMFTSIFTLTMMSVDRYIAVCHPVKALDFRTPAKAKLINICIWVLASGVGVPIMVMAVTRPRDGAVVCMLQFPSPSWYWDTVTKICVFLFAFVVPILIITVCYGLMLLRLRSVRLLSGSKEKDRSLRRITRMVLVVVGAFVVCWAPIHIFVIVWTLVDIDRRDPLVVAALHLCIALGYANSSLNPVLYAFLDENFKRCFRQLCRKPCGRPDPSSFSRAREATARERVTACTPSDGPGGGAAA

[16] = target: T5, 5-hydroxytryptamine receptor 6 (Homo sapiens, UniProt P50406); settings: Compound concentration 10.0 uM
T5 sequence (P50406 whole entry): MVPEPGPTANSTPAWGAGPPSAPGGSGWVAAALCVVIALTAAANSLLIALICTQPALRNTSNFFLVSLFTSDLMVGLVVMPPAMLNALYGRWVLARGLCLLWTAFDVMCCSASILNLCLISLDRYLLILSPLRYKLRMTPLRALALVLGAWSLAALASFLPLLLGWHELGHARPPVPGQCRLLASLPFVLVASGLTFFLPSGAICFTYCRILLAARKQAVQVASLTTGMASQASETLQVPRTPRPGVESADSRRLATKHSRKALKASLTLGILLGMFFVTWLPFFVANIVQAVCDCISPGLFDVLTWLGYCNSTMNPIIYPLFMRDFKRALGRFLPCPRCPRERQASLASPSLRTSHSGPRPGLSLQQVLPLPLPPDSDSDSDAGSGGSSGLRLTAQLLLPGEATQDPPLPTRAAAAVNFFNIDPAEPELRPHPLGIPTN

[17] = target: Adenosine receptor A3 (Homo sapiens) (UniProt P0DMS8); test: A3 (h) Eurofins-Cerep binding assay; parameters: ligand concentration 0.15 nM; settings: filed as agonist, Compound concentration 10.0 uM
[18] = target: 5-hydroxytryptamine receptor 2A (Homo sapiens) (UniProt P28223); settings: Compound concentration 10.0 uM
Sequence of 5-hydroxytryptamine receptor 2A (Homo sapiens) (P28223 whole entry): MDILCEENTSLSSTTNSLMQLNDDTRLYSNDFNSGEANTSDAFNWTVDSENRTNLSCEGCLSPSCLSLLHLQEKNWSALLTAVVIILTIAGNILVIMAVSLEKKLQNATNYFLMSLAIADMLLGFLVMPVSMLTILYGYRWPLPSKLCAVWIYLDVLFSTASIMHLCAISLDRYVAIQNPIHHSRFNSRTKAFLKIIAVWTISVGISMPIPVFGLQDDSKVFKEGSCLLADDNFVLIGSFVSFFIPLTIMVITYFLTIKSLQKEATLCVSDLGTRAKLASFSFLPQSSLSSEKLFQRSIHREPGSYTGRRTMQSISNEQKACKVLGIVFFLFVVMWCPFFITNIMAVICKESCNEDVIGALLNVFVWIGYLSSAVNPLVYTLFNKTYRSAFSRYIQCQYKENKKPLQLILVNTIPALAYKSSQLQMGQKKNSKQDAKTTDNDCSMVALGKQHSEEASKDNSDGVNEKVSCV

[19] = target: Mu-type opioid receptor (Homo sapiens) (UniProt P35372); settings: Compound concentration 10.0 uM
Sequence of Mu-type opioid receptor (Homo sapiens) (P35372 whole entry): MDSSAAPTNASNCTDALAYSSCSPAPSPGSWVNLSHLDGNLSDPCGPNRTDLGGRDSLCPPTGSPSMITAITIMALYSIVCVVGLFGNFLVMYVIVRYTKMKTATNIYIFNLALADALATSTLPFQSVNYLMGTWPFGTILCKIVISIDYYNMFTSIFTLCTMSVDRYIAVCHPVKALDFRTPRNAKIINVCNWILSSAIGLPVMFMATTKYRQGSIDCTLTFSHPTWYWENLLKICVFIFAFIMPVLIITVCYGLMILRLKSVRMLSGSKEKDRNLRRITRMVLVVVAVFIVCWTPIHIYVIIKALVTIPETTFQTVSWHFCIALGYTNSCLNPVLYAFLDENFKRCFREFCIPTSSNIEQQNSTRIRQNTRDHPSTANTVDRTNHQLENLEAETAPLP

[20] = target: Monocarboxylate transporter 1 (Homo sapiens, UniProt P53985); test: Lactate efflux inhibition assay (SNU-398)
[21] = target: T5, 5-hydroxytryptamine receptor 6; test: GPCRScan assay: inhibition of 5-HT6; parameters: radioligand conc. used [nm] 2.0 – 4.0, parental cells stable HEK
[22] = target: Sodium-dependent dopamine transporter (Homo sapiens, UniProt Q01959); test: GPCRScan assay: inhibition of DAT; parameters: radioligand conc. used [nm] 3.6 – 16.0, parental cells stable HEK
Sequence of Sodium-dependent dopamine transporter (Q01959 whole entry): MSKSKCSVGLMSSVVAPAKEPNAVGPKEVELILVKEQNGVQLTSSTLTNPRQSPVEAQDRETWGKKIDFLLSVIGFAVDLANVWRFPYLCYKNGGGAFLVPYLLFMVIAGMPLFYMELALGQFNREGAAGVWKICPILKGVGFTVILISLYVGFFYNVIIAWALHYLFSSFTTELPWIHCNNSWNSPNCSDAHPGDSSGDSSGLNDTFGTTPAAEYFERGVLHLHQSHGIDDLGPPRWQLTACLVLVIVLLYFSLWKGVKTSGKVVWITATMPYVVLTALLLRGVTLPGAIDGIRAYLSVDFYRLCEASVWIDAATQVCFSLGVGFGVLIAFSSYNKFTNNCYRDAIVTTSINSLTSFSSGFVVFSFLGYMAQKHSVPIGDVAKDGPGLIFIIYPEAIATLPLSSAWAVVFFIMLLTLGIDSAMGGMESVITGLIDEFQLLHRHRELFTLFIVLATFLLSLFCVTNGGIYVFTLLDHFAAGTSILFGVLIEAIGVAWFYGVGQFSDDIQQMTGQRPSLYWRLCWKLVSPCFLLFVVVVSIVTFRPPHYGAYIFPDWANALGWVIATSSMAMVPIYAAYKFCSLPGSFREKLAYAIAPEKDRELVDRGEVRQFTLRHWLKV

[23] = target: T1, GABA-A receptor; anion channel (Rattus norvegicus); settings: Compound concentration 10.0 uM

Row | Compound | inhibition [3] [%] | inhibition [5] [%] | inhibition [6] [%] | inhibition [7] [%] | inhibition [9] [%] | IC50 [12] | inhibition [14] [%] | inhibition [15] [%] | inhibition [16] [%] | inhibition [18] [%] | further results
1 | CCOc1ccc(S(=O)(=O)Nc2ccc(Cl)cc2C#Cc2cnc(C(=O)O)cc2OC)c2ncccc12 [MSC-4381] | 14.8 | -6.26 | -6.66 | 15 | 18.6 | 0.638 µM | 4.24 | -8.88 | 25.9 | -0.22 | % Inhibition of Control Specific Binding (Mean n=2) [1]: 59.9%; % Inhibition of Control Specific Binding (Mean n=2) [2]: -14.7%; Ki [4]: > 10 µM; pKi [4]: < 5; % Inhibition of Control Specific Binding (Mean n=2) [8]: 8%; % Inhibition of Control Specific Binding (Mean n=2) [10]: 35.8%; % Inhibition of Control Specific Binding (Mean n=2) [11]: 6.6%; % Inhibition of Control Specific Binding (Mean n=2) [13]: -8%; % Inhibition of Control Specific Binding (Mean n=2) [17]: 28.1%
2 | COc1cc(C(=O)O)ncc1C#Cc1ccccc1NS(=O)(=O)c1cccc2c(N(C)C)ccnc12 [MSC-0516] | -2.19 | -3.36 | 18.7 | 8.34 | 40.2 | > 4 µM (not active) | -5.83 | 84.3 | 65.5 | 9.61 | inhibition [19]: 35.4%; IC50 [20]: > 4 µM (not active); Ki ([21]; read-out: Ki): 1.52 µM; Ki ([21]; read-out: pKi (converted)): 1.45 µM; Ki ([22]; read-out: Ki): 9.59 µM; Ki ([22]; read-out: pKi (converted)): 9.55 µM; inhibition [23]: 19.4%
